Laboratory results from US20100179130A1, “USE OF PIPERINE AND DERIVATIVES THEREOF FOR THE THERAPY OF NEUROLOGICAL CONDITIONS” (SYNGIS Bioscience GmbH & Co. KG, priority 2007, published 2010).

How the values were obtained:
[1] = system: neural stem cells; test: In vitro differentiation assay on adult neural stem cells (beta-III-tubulin promoter firefly/Renilla dual luciferase reporter); type: cell-based, rat; details: for Stimulation factor for differentiation of neural stem cells / fold induction at 1 µM: 1 μM final compound concentration, in comparison to sham treatment; for differentiation of neural stem cells to neurons, dose dependence: 0.2 μM up to 25, 50 or 100 μM, compared with sham and 1 μM retinoic acid; for fold induction at 1 µM: Rattus norvegicus, Neural stem cell, read-out: Stimulation factor for differentiation of neural stem cells
Source text: The neuroregenerative effect of the compounds according to the present invention can be assayed in vitro by measuring their stimulation of the differentiation of neural stem cells. Therefore, adult neural stem cells have to be isolated and subsequently cultivated in a suitable culture medium. After several passages in vitro the stem cells have to be co-transfected with a DNA construct coding for two discriminable reporter proteins one of them under the control of a constitutive promoter and the other under the control of a beta-III-tubulin promoter. The beta-III-tubulin promoter is induced during the process of neural stem cell differentiation; therefore the reporter protein under the control of this promoter serves as a marker for the stem cell differentiation in such an in vitro dual reporter assay (Schneider et al., J Clin Investigation 2005; 115:2083-2098). The person skilled in the art knows several suitable constitutive promoters such as the SV40-promoter, the TK-promoter, or the CMV-promoter. As discriminable reporter proteins for such a dual reporter assay one can use discriminable luciferases such as firefly luciferase and Renilla luciferase. The transfected cells have to be incubated with the test compound and with a positive and negative controls for normalization and background correction. As a positive control compound one can use retinoic acid (Guan et al., Cell Tissue Res. 2001; 305:171-176; Jacobs et al., Proc. Natl. Acad. Sci. USA 2006; 103:3902-3907), a suitable negative control is the sham treatment of the cells. The neroregenerative activity of the test compound is determined as the ratio of the signal of the beta-III-tubulin promoter controlled reporter versus the signal of the constitutively expressed reporter and is expressed as fold from the control. This assay is suitable to assess the neuroregenerative activity of piperine and derivatives thereof, but also can be used to screen for other potential neuroregenerative compounds. Preferably, such a screening can be used to test compounds which are already known to be suitable as a medicament in terms of its toxicology, bioavailability, solubility, stability etc.
Neural stem cells were isolated from the subventricular zone of 4 week-old male Wistar rats as described (Maurer et al, Proteome Sci. 2003; 1:4). Cells were cultivated in Neurobasal medium (Invitrogen) supplemented with B27 (Invitrogen), 2 mM L-glutamine, 100 units/ml penicillin, 100 units/ml streptomycin, 20 ng/ml […] (EGF), 20 ng/ml fibroblast growth factor-2 (FGF-2), and 2 μg/ml heparin. Once a week the neural stem cells were passaged and experiments were performed after 4 weeks in vitro. For DNA transfection, the cells were dissociated and plated on poly-L-ornithin/laminin-coated 96-well plates at a density of 50.000 cells/well. Cotransfection with the pGL3-p-βIII-tubulin vector (100 ng/well) and the pRL SV40 vector (100 ng/well) was carried out according to the FuGene6 Transfection protocol (Roche). The pRL SV40 vector (Promega) served as an internal control vector.
To amplify the class III β-tubulin gene promoter (fragment −450-+54), rat genomic DNA was used as a template for PCR (Dennis et al., Gene 2002; 294:269-277). The amplified fragment was inserted into the Mlu I/Xho I site of the pGL3-Basic firefly luciferase reporter vector (Promega) to generate the pGL3-p-βIII-tubulin experimental vector.
After overnight incubation, the plate was decanted and given in 8-fold replicates fresh medium containing piperine (Sigma) or vehicle. As a positive control for in vitro differentiation, stem cells were treated by adding 1 μM retinoic acid (Sigma) to the medium missing the mitogens.
After 48 hrs, the cells were harvested to prepare the cellular extracts for luciferase assay following the directions of the manufacturer (Promega). […]

[2] = system: SH-SY5Y neuronal cells; test: In vitro anti-apoptosis assay, staurosporine induced apoptosis, Caspase-Glo 3/7; type: cell-based, human; details: for degree of apoptosis relative to the staurosporine control: compound 1 μM in the presence of staurosporine 0.1 μM
[3] = system: motoneural cell line NSC-34; test: Anti-apoptosis assay on motoneural cell line, staurosporine induced apoptosis, Caspase-Glo 3/7; type: cell-based; details: for degree of apoptosis relative to the staurosporine control: compound 1 μM in the presence of staurosporine 0.1 μM
Procedure: Instead of the SH-SY5Y cells used in Example 3 and 4, this analysis was performed with motoneural cell line NSC-34. […] Incubation with staurosporine (SP; 0.1 μM) alone served as positive control and incubation with vehicle served as negative control. The degree of apoptosis relative to the staurosporine control is shown in FIG. 4 (vehicle (sham): 6%; staurosporine (SP): 100%; piperine plus staurosporine: 70%; derivative B plus staurosporine: 55%; derivative E plus staurosporine: 75%; derivative G plus staurosporine: 76%; derivative K plus staurosporine: 83%; derivative S plus staurosporine: 77%; derivative U plus staurosporine: 71%).

[4] = system: SH-SY5Y neuronal cells; test: In vitro viability assay, cells stably transfected with constitutive Renilla luciferase; details: 1 μM, 5 h
Source text: The viability assay allows for further assessment of test compounds regarding their effect on cells such as neurons. […] Subsequently, the signal generated by the reporter construct serves as a readout for the viability of the cells in the presence of the test compound. The assay enables the evaluation of potential neurotoxic effects of the test compound itself.
The effect of a compound on the viability of neuronal cells can be assayed in vitro by measuring the survival of neuronal cells transfected with a reporter construct under a constitutive promoter. SH-SY5Y neuronal cells stably transfected with a Renilla luciferase construct under the SV40 promoter were seeded in 96-well plates at a density of 2.5×10^4 cells per well. Following overnight incubation the cells were stimulated with medium containing piperine or vehicle. Staurosporine (0.1 μM) served as positive control. The Renilla luciferase activity was measured 5 h later using a luminometer (Berthold Technologies, Mithras LB 940). Piperine was tested in a range from 0.1 nM to 100 μM final concentration.

Molecule | degree of apoptosis relative to the staurosporine control ([2]; SH-SY5Y) | differentiation of neural stem cells to neurons, dose dependence [1] | fold induction at 1 µM [1] | further results
3-(Chloro-3,4-dihydro-2H-benzo[b][1,4]dioxepin-7-yl)N-cyclohexyl-acrylamide | – | – | – | Stimulation factor for differentiation of neural stem cells [1]: 1.7 x-fold
NC1(C(=O)/C=C/c2ccc3c(c2)OCO3)CCCCCC1 [1-(3-trans-benzo-1,3-dioxol-5-ylacryloyl)cycloheptylamine] | 49% | significantly stimulates | 4 | degree of apoptosis relative to the staurosporine control [3]: 55%
NC1(C(=O)/C=C/c2ccc3c(c2)OCO3)CCCC1 [1-(3-trans-benzo-1,3-dioxol-5-ylacryloyl)cyclopentylamine] | 77% | significantly stimulates | 1.4 | –
O=C(/C=C/c1ccc2c(c1)OCO2)N1CCCC1 [1-(3-trans-benzo-1,3-dioxol-5-ylacryloyl)pyrrolidine] | 72% | significantly stimulates | 1.3 | –
O=C(C=Cc1ccc2c(c1)OCCCO2)N1CCCCCC1 [1-Azepan-1-yl-3-(3,4-dihydro-2H-benzo[b][1,4]dioxepin-7-yl)-propenone] | 83% | significantly stimulates | – | Stimulation factor for differentiation of neural stem cells [1]: 6.1 x-fold; degree of apoptosis relative to the staurosporine control [3]: 83%; viability of neuronal cells [4]: did not show reduced viability
O=C(C=Cc1cc(Cl)c2c(c1)OCCO2)N1CCCCCC1 [1-Azepan-1-yl-3-(8-chloro-2,3-dihydro-benzol[1,4]dioxin-6-yl)-propenone] | – | – | – | Stimulation factor for differentiation of neural stem cells [1]: 1.8 x-fold
O=C(C=Cc1cc(Cl)c2c(c1)OCCCO2)N1CCCCCC1 [1-Azepan-1-yl-3-(9-chloro-3,4-dihydro-2H-benzo[b][1,4]dioxepin-7-yl)-propenone] | – | – | – | Stimulation factor for differentiation of neural stem cells [1]: 2.2 x-fold
CC1CCN(C(=O)C=Cc2ccc3c(c2)OCO3)CC1 [1-[3-(1,3-benzodioxol-5-yl)acryloyl]-4-methylpiperidine] | – | significantly stimulates | 1.9 | –
CCCOc1ccc(C=CC(=O)N2CCCCCC2)cc1 [1-[3-(4-propoxyphenyl)acryloyl]azepane] | – | – | 2.3 | –
CCCOc1ccc(C=CC(=O)N2CCCCC2)cc1 [1-[3-(4-propoxyphenyl)acryloyl]piperidine] | 81% | significantly stimulates | 4 | degree of apoptosis relative to the staurosporine control [3]: 77%
O=C(C=Cc1ccc2c(c1)OCO2)NCC1CCCO1 (centres unmarked) [3-(1,3-benzodioxol-5-yl)-N-(tetrahydro-2-furanylmethyl)acrylamide] | – | – | 1.5 | –
O=C(C=Cc1ccc2c(c1)OCO2)NC1CC2CCC1C2 (centres unmarked) [3-(1,3-benzodioxol-5-yl)-N-bicyclo[2.2.1]hept-2-ylacrylamide] | – | – | 1.7 | –
O=C(C=Cc1ccc2c(c1)OCO2)NC1CCCCCCC1 [3-(1,3-benzodioxol-5-yl)-N-cyclooctylacrylamide] | 77% | significantly stimulates | 5 | degree of apoptosis relative to the staurosporine control [3]: 75%
CCOc1ccc(C=CC(=O)NC2CCCO2)cc1 (centres unmarked) [3-(4-ethoxyphenyl)-N-(tetrahydro-2-furanyl)acrylamide] | – | – | 1.5 | –
O=C(C=Cc1ccc2c(c1)OCO2)NC1=NCCS1 [3-Benzol[1,3]dioxol-5-yl-N-(4,5-dihydro-thiazol-2-yl)-acrylamide] | 79% | significantly stimulates | – | Stimulation factor for differentiation of neural stem cells [1]: 4.6 x-fold; degree of apoptosis relative to the staurosporine control [3]: 76%; viability of neuronal cells [4]: did not show reduced viability
CCCOc1ccc(C=CC(=O)NC2CCCCCC2)cc1 [N-cycloheptyl-3-(4-propoxyphenyl)acrylamide] | – | significantly stimulates | 1.7 | –
CCOc1ccc(C=CC(=O)NC2CCCCC2)cc1 [N-cyclohexyl-3-(4-ethoxyphenyl)acrylamide] | – | – | 1.7 | –
COc1ccc(C=CC(=O)NC2CCCCCCC2)cc1 [N-cyclooctyl-3-(4-methoxyphenyl)acrylamide] | – | significantly stimulates | 1.9 | –
CCCOc1ccc(C=CC(=O)NC2CCCC2)cc1 [N-cyclopentyl-3-(4-propoxyphenyl)acrylamide] | – | significantly stimulates | 1.6 | –
COc1cccc(NC(=O)/C=C/c2ccc(Cl)cc2)c1 [SB366791, reference compound] | – | – | – | inhibition of the neuroprotective effect of piperine ([2]; SB366791 10 nM to 100 nM with piperine 10 μM and staurosporine 0.1 μM): did not result in any inhibition; inhibition of the neuroregenerative effect of piperine ([1]; SB366791 10 μM co-incubated with 10 μM piperine): did not result in any inhibition
COc1cc(CNC(=O)CCCC/C=C/C(C)C)ccc1O [capsaicin, reference compound] | – | – | – | anti-apoptotic effect compared to piperine (10 μM) ([2]; capsaicin 10 μM with staurosporine 0.1 μM): only a marginal anti-apoptotic effect; stimulating effect on the differentiation of neural stem cells ([1]; 0.1 nM to 100 μM final concentration): no stimulating effect
CN[C@@H]1C[C@H]2O[C@@](C)([C@@H]1OC)n1c3ccccc3c3c4c(c5c6ccccc6n2c5c31)C(=O)NC4 [staurosporine, reference compound] | – | – | – | degree of apoptosis relative to the staurosporine control (staurosporine alone) ([2]; staurosporine 0.1 μM alone, positive control, SH-SY5Y): 100%; degree of apoptosis relative to the staurosporine control (staurosporine alone) ([3]; staurosporine 0.1 μM alone, positive control): 100%
